Compared with `O=C(CCc1oc(-n2cnc3ccccc32)nc1-c1ccc(Cl)cc1)NCc1ccc(Cl)c(Cl)c1` [Example 147, 3-[2-(1H-benzimidazol-1-yl)-4-(4-chlorophenyl)-5-oxazolyl]-N-(3,4-dichlorobenzyl)propionamide], `O=C(CCc1oc(-n2cnc3ccccc32)nc1-c1ccc(Cl)cc1)NCc1ccc(F)cc1Cl` [Example 168, 3-[2-(1H-benzimidazol-1-yl)-4-(4-chlorophenyl)-5-oxazolyl]-N-(2-chloro-4-fluorobenzyl)propionamide] is higher in melting point: 190 to 191 °C for the first, 196 to 198 °C for the second.

First: O=C(CCc1oc(-n2cnc3ccccc32)nc1-c1ccc(Cl)cc1)N1CCS(=O)(=O)CC1 [Example 194, 4-{3-[2-(1H-benzimidazol-1-yl)-4-(4-chlorophenyl)-5-oxazolyl]propanoyl}thiomorpholine-1,1-dioxide]
Second: O=C(CCc1oc(-n2cnc3ccccc32)nc1-c1ccc(Cl)cc1)N1CCSC1 [Example 259, 3-{3-[2-(1H-benzoimidazol-1-yl)-4-(4-chlorophenyl)-5-oxazolyl]propanoyl}thiazolidine]
The melting point of the first is higher: 227 to 228 °C for the first, 125 to 126 °C for the second.

First: O=C(CCCc1oc(-n2cnc3ccccc32)nc1-c1ccc(Cl)cc1)Nc1ccc(S(=O)(=O)Nc2nccs2)cc1 [Example 104, 4-[2-(1H-benzimidazol-1-yl)-4-(4-chlorophenyl)-5-oxazolyl]-N-(4-{[(2-thiazolyl)amino]sulfonyl}phenyl)butanamide]
Second: NS(=O)(=O)c1ccc(CNC(=O)CCc2oc(-n3cnc4ccccc43)nc2-c2ccc(Cl)cc2)cc1 [Example 151, N-[4-(aminosulfonyl)benzyl]-3-[2-(1H-benzimidazol-1-yl)-4-(4-chlorophenyl)-5-oxazolyl]propionamide]
The melting point of the first is lower: 243 to 244 °C for the first, 255 to 256 °C for the second.

Compared with `CCOP(=O)(Cc1cccc(NC(=O)CCCc2oc(-n3cnc4ccccc43)nc2-c2ccc(Cl)cc2)c1)OCC`, `N#CCc1cccc(NC(=O)CCc2oc(-n3cnc4ccccc43)nc2-c2ccc(Cl)cc2)c1` [Example 110, 3-[2-(1H-benzimidazol-1-yl)-4-(4-chlorophenyl)-5-oxazolyl]-N-[3-(cyanomethyl)phenyl]propionamide] is higher in melting point: 135 to 136 °C for the first, 188 to 189 °C for the second.

Compared with `CCOP(=O)(Cc1ccc(NC(=O)CCc2oc(-n3cnc(C)c3C)nc2-c2ccc(Cl)cc2)cc1)OCC`, `CCOP(=O)(Cc1ccc(NC(=O)CCc2sc(NC(=O)NC)nc2-c2ccc(Cl)cc2)cc1)OCC` is higher in melting point: 179 to 180 °C for the first, 206 to 207 °C for the second.

First: COC(=O)c1ccc(NC(=O)CCc2sc(-c3ccccc3)nc2-c2ccc(Cl)cc2)cc1 [Example 45, 3-[4-(4-chlorophenyl)-2-phenyl-5-thiazolyl]-N-[4-(methoxycarbonyl)phenyl]propionamide]
Second: COC(=O)c1ccc(NC(=O)CCCc2oc(-c3ccccc3)nc2-c2ccc(Cl)cc2)cc1 [Example 50, 4-[4-(4-chlorophenyl)-2-phenyl-5-oxazolyl]-N-[4-(methoxycarbonyl)phenyl]butanamide]
The melting point of the first is higher: 177 to 178 °C for the first, 170 to 171 °C for the second.

First: O=C(CCc1oc(-n2cnc3ccccc32)nc1-c1ccc(Cl)cc1)NCc1ccc(-c2csnn2)cc1 [Example 150, 3-[2-(1H-benzimidazol-1-yl)-4-(4-chlorophenyl)-5-oxazolyl]-N-[4-(1,2,3-thiadiazol-4-yl)benzyl]propionamide]
Second: CCOP(=O)(Cc1ccc(NC(=O)CCc2sc(-n3cnc4ccccc43)nc2C(C)(C)C)cc1)OCC
The melting point of the first is higher: 173 to 174 °C for the first, 155 to 156 °C for the second.

For `CCCc1nc(-c2ccc(Cl)cc2)c(CCC(N)=O)o1` [Example 29, 3-[4-(4-chlorophenyl)-2-propyl-5-oxazolyl]propionamide], the melting point was 150 to 151 °C.

In the case of `NC(=O)c1ccc(NC(=O)CCc2sc(-c3ccccc3)nc2-c2ccc(Cl)cc2)cc1` [Example 67, 4-({3-[4-(4-chlorophenyl)-2-phenyl-5-thiazolyl]propanoyl}amino)benzamide], the melting point is reported as ≥ 300 °C (dec.).

— patent US7183276B2, “Azole compounds” (Takeda Pharmaceutical Company Limited, priority 2002, dated 2007)
